# Data taken from patent publication US7338958B2, “Sulfoximine-substituted pyrimidines as CDK-and/or VEGF inhibitors, their production and use as pharmaceutical agents” (Schering AG, priority 2003, dated 2008).
# Columns and labels:
# [1] = system: MCF7, hormone-independent human breast cancer cells; test: Proliferation assay, MCF7; assay type: cell-based; conditions: MCF7, 96 h, 4 days incubation, crystal violet
# Source text: (§1) Cultivated human tumor cells (MCF7, hormone-independent human breast cancer cells, related to ATCC HTB22; NCI-H460, human non-small-cell lung cancer cells, ATCC HTB-177, HCT 116, human colon cancer cells, ATCC CCL-247; DU 145, hormone-independent human prostate cancer cells, ATCC HTB-81; MaTu-MDR, hormone-independent, multiple pharmaceutical agent-resistant human breast cancer cells, EPO-GmbH, Berlin) were flattened out at a density of about 5000 cells/measuring point, depending on the growth rate of the respective cells, in a 96-well multititer plate in 200 μl of the corresponding growth medium. After 24 hours, the cells of one plate (zero-point plate) were colored with crystal violet (see below), while the medium of the other plates was replaced by fresh culture medium (200 μl), to which the test substances were added in various concentrations (0 μm, as well as in the range of 0.01-30 μm; the final concentration of the solvent dimethyl sulfoxide was 0.5%). The cells were incubated for 4 days in the presence of test substances. The cell proliferation was determined by coloring the cells with crystal violet: the cells were fixed by adding 20 μl/measuring point of an 11% glutaric aldehyde solution for 15 minutes at room temperature. After three washing cycles of the fixed cells with water, the plates were dried at room temperature. The cells were colored by adding 100 μl/measuring point of a 0.1% crystal violet solution (the pH was set at 3 by adding acetic acid). After three washing cycles of the colored cells with water, the plates were dried at room temperature. The dye was dissolved by adding 100 μl/measuring point of a 10% acetic acid solution. The extinction was determined by photometry at a wavelength of 595 nm. The change of cell growth, in percent, was calculated by normalization of the measured values to the extinction values of the zero-point plate (=0%) and the extinction of the untreated (0 μm) cells (=100%).
# [2] = system: NCI-H460, human non-small-cell lung cancer cells; test: Proliferation assay, H460; assay type: cell-based; conditions: NCI-H460, 96 h, 4 days incubation, crystal violet
# Source text: as §1
# [3] = system: DU 145, hormone-independent human prostate cancer cells; test: Proliferation assay, DU145; assay type: cell-based; conditions: DU-145, 96 h, 4 days incubation, crystal violet
# Source text: as §1
# [4] = system: MaTu-ADR; test: Proliferation assay, MaTu-ADR; assay type: cell-based; conditions: Homo sapiens, 96 h, MaTu-ADR cells, 4 days incubation, crystal violet
# Source text: as §1
# [5] = biological target: T1, CDK2/CycE (Homo sapiens, UniProt P24941); test: CDK2/CycE Kinase Assay; assay type: biochemical; conditions: histone IIIS substrate, 33P-ATP, 15 minutes at 22° C.
# T1 construct: GST; purchased ProQinase GmbH, Freiburg; host or cells: baculovirus-infected insect cells (Sf9)
# Description: Recombinant CDK2- and CycE-GST-fusion proteins, purified from baculovirus-infected insect cells (Sf9), were purchased by ProQinase GmbH, Freiburg. Histone IIIs, which was used as a kinase substrate, was purchased by the Sigma Company.
# CDK2/CycE (50 ng/measuring point) was incubated for 15 minutes at 22° C. in the presence of various concentrations of test substances (0 μm, as well as within the range of 0.01-100 μm) in assay buffer [50 mmol of tris/HCl, pH 8.0, 10 mmol of MgCl2, 0.1 mmol of Na ortho-vanadate, 1.0 mmol of dithiothreitol, 0.5 μm of adenosine triphosphate (ATP), 10 μg/measuring point of histone IIIS, 0.2 μCi/measuring point of ^33P-gamma ATP, 0.05% NP40, 12.5% dimethyl sulfoxide]. The reaction was stopped by adding EDTA solution (250 mmol, pH 8.0, 14 μl/measuring point).
# (§2) From each reaction batch, 10 μl was applied to P30 filter strips (Wallac Company), and non-incorporated ^33P-ATP was removed by subjecting the filter strips to three washing cycles for 10 minutes each in 0.5% phosphoric acid. After the filter strips were dried for one hour at 70° C., the filter strips were covered with scintillator strips (MeltiLex™ A, Wallac Company) and baked for one hour at 90° C. The amount of incorporated ^33P (substrate phosphorylation) was determined by scintillation measurement in a gamma-radiation measuring device (Wallac).
# [6] = biological target: T2, CDK1/CycB (Homo sapiens, UniProt P06493); test: CDK1/CycB Kinase Assay; assay type: biochemical; conditions: histone IIIS substrate, 33P-ATP, 15 minutes at 22° C.
# T2 construct: GST; purchased ProQinase GmbH, Freiburg; host or cells: baculovirus-infected insect cells (Sf9)
# T2 sequence (P06493 whole entry): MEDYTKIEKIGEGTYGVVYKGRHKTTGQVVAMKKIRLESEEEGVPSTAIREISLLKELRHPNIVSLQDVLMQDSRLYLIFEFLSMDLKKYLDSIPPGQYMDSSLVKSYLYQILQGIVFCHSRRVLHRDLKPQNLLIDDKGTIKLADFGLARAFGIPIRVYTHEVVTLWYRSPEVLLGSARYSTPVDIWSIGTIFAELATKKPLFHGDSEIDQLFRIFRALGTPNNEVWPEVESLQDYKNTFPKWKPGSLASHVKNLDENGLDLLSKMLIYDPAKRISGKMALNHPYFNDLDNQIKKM
# T2 sequence (P14635 whole entry partner): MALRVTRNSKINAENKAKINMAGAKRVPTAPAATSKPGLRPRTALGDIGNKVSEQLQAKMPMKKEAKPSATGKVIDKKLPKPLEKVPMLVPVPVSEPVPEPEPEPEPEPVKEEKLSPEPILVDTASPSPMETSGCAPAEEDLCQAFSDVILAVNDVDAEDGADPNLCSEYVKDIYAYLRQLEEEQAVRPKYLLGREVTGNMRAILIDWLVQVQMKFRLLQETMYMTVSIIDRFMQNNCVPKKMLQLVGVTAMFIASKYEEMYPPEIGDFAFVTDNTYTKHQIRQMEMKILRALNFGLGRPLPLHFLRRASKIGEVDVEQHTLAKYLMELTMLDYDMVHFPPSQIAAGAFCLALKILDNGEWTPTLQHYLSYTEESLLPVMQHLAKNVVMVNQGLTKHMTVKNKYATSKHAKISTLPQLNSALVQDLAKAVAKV
# Description: Recombinant CDK1- and CycB-GST-fusion proteins, purified from baculovirus-infected insect cells (Sf9), were purchased from ProQinase GmbH, Freiburg. Histone IIIS, used as a kinase substrate, is available commercially from the Sigma Company.
# The reaction was stopped by adding EDTA solution (250 mmol, pH 8.0, 14 μl/measuring point).
# as §2, with “33P-ATP” for “^33P-ATP”, “33P” for “^33P”
# [7] = biological target: T3, VEGF receptor tyrosine kinase-2 (Homo sapiens, UniProt P35968); test: VEGF Receptor-2 Kinase Assay; assay type: biochemical; conditions: poly-(Glu4Tyr) substrate, 33P-ATP, 10 minutes at 22° C.; read-out: VEGF-R2 IC50
# T3 construct: GST; made in house; host or cells: baculovirus-infected insect cells (Sf9)
# T3 sequence (P35968 20-1356): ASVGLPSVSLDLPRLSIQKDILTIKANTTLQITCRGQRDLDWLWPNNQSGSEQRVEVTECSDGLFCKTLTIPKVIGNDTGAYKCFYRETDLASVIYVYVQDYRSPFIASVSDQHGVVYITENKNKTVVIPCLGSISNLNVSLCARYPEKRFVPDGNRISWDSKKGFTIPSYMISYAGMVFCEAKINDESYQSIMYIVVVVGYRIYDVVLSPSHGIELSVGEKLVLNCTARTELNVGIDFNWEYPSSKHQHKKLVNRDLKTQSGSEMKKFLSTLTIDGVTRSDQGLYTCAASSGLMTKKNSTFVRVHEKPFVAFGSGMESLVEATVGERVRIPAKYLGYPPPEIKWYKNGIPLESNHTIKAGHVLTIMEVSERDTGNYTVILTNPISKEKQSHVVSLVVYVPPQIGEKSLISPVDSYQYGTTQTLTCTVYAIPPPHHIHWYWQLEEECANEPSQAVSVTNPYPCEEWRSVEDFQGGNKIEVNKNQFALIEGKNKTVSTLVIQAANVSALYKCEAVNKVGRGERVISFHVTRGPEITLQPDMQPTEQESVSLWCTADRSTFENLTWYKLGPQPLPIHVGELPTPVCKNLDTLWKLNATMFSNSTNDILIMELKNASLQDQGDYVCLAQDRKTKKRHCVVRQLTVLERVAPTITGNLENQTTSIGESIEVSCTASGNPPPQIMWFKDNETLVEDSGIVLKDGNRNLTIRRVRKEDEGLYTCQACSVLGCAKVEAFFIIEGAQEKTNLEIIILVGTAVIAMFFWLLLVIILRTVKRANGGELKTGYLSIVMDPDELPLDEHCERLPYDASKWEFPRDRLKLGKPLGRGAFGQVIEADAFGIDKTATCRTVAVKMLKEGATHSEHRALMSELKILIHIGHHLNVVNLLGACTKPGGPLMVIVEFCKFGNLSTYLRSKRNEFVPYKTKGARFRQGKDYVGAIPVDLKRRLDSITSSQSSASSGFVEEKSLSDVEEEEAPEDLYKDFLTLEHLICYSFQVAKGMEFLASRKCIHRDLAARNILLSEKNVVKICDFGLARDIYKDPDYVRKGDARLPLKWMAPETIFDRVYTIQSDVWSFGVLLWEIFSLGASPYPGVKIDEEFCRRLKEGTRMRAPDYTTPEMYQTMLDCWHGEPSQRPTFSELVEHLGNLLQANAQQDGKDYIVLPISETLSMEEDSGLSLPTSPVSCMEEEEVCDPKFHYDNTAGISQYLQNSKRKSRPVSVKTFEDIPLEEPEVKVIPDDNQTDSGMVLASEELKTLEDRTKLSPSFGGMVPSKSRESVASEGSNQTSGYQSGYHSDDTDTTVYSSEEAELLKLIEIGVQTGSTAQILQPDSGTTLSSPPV
# Description: VEGF Receptor-2 Kinase Assay
# Recombinant VEGF receptor tyrosine kinase-2 was purified as a GST fusion protein from baculovirus-infected insect cells (Sf9). Poly-(Glu4Tyr), which was used as a kinase substrate, was purchased by the Sigma Company.
# VEGF receptor tyrosine kinase (90 ng/measuring point) was incubated for 10 minutes at 22° C. in the presence of various concentrations of test substances (0 μm, as well as within the range of 0.001-30 μm) in 30 μl of assay buffer [40 mmol of Tris/HCl, […], 10 mmol of MgCl2, 1 mmol of MnCl2, 3 μmol of Na ortho-vanadate, 1.0 mmol of dithiothreitol, 8 μmol of adenosine trisphosphate (ATP), 27 μg/measuring point of poly-(Glu4Tyr), 0.2 μCi/measuring point of 33P-gamma ATP, 1% dimethyl sulfoxide]. The reaction was stopped by adding EDTA solution (250 mmol, pH 7.0, 10 μl/measuring point).
# as §2, with “33P-ATP” for “^33P-ATP”, “33P” for “^33P”
IC50 [1] [nM],IC50 [2] [nM],IC50 [3] [nM],IC50 [5] [nM],IC50 [6] [nM],IC50 [7] [nM],SMILES,IC50 [4] [nM]
140,120,170,11,43,92,"CCOC(=O)N=S(=O)(CC)c1ccc(Nc2ncc(Br)c(N[C@H](C)[C@@H](C)O)n2)cc1 (mixture of isomers) [Example 1.36, (RS)-S-[4-({5-bromo-4-[(1R,2R)-(2-hydroxy-1-methylpropyl)amino]pyrimidin-2-yl}amino)phenyl]-N-(ethoxycarbonyl)-S-ethyl sulfoximide]",1200
190,180,300,12,16,56,"CCOC(=O)N=S(C)(=O)c1ccc(Nc2ncc(Br)c(N[C@H](C)[C@@H](C)O)n2)cc1 (mixture of isomers) [Example 1.32, (RS)-S-[4-({5-bromo-4-[(1R,2R)-(2-hydroxy-1-methylpropyl)amino]pyrimidin-2-yl}amino)phenyl]-N-(ethoxycarbonyl)-S-methyl sulfoximide]",600
120,60,130,78,75,59,"CCOC(=O)N=S(C)(=O)c1ccc(Nc2ncc(Br)c(N[C@H](C)[C@@H](C)O)n2)cc1C (mixture of isomers) [Example 1.38, (RS)-S-[4-({5-bromo-4-[(1R,2R)-(2-hydroxy-1-methylpropyl)amino]pyrimidin-2-yl}amino)-2-methylphenyl]-N-(ethoxycarbonyl)-S-methyl sulfoximide]",400
200,400,300,49,160,160,"C[C@@H](Nc1nc(Nc2ccc(S(=O)(CCO)=NS(=O)(=O)CC[Si](C)(C)C)cc2)ncc1Br)C(C)(C)O (mixture of isomers) [Example 1.12, (RS)-S-[4-({5-bromo-4-[(R)-(2-hydroxy-1,2-dimethylpropyl)amino]pyrimidin-2-yl}amino)phenyl]-S-(2-hydroxyethyl)-N-[2-(trimethylsilyl)ethylsulfonyl]sulfoximide]",2800
60,40,40,4,4,39,"Cc1cc(Nc2ncc(Br)c(N[C@H](C)[C@@H](C)O)n2)ccc1S(C)(=N)=O (mixture of isomers) [Example 1.60, (RS)-S-[4-({5-bromo-4-[(1R,2R)-(2-hydroxy-1-methylpropyl)amino]pyrimidin-2-yl}amino)-2-methylphenyl]-S-methyl sulfoximide]",40
100,110,100,4,5,49,"C[C@@H](Nc1nc(Nc2ccc(S(=N)(=O)CC3CC3)cc2)ncc1Br)C(C)(C)O (mixture of isomers) [Example 1.9, (RS)-S-[4-({5-bromo-4-[(R)-(2-hydroxy-1,2-dimethylpropyl)amino]pyrimidin-2-yl}amino)phenyl]-S-(cyclopropylmethyl)sulfoximide]",100
110,120,120,42,96,94,"CCOC(=O)N=S(=O)(CC)c1ccc(Nc2ncc(Br)c(N[C@H](C)C(C)(C)O)n2)cc1 (mixture of isomers) [Example 1.35, (RS)-S-[4-({5-bromo-4-[(R)-(2-hydroxy-1,2-dimethylpropyl)amino]pyrimidin-2-yl}amino)phenyl]-N-(ethoxycarbonyl)-S-ethyl sulfoximide]",300
130,< 100,100,6,–,75,"COc1cc(Nc2ncc(Br)c(N[C@H](C)C(C)(C)O)n2)ccc1S(C)(=N)=O (mixture of isomers) [Example 1.23, (RS)-S-[4-({5-bromo-4-[(R)-(2-hydroxy-1,2-dimethylpropyl)amino]pyrimidin-2-yl}amino)-2-methoxyphenyl]-S-methyl sulfoximide]",< 100
300,300,300,19,49,–,"CCOC(=O)N=S(=O)(CC)c1ccc(Nc2ncc(Br)c(O[C@H](C)[C@@H](C)O)n2)cc1 (mixture of isomers) [Example 1.39, (RS)-S-[4-({5-bromo-4-[(1R,2R)-2-hydroxy-1-methylpropoxy]pyrimidin-2-yl}amino)phenyl]-N-(ethoxycarbonyl)-S-ethyl sulfoximide]",900

SMILES,IC50 [1] [nM],IC50 [2] [nM],IC50 [3] [nM],IC50 [5] [nM],IC50 [6] [nM],IC50 [7] [nM],IC50 [4] [nM]
"C[C@@H](O)[C@@H](C)Oc1nc(Nc2ccc(S(=O)(CCO)=NS(=O)(=O)CC[Si](C)(C)C)cc2)ncc1Br (mixture of isomers) [Example 1.20, (RS)-S-[4-({5-bromo-4-[(1R,2R)-2-hydroxy-1-methyl-propoxy]pyrimidin-2-yl}amino)phenyl]-S-(2-hydroxyethyl)-N-[2-(trimethylsilyl)ethylsulfonyl]sulfoximide]",200,400,400,54,160,820,2100
"C[C@@H](Nc1nc(Nc2ccc(S(=O)(=NS(=O)(=O)CC[Si](C)(C)C)C3CCCC3)cc2)ncc1Br)C(C)(C)O (mixture of isomers) [Example 1.10, (RS)-S-[4-({5-bromo-4-[(R)-(2-hydroxy-1,2-dimethylpropyl)amino]pyrimidin-2-yl}amino)phenyl]-S-cyclopentyl-N-[2-(trimethylsilyl)ethylsulfonyl]sulfoximide]",500,700,800,> 1000,> 1000,910,800
